Laboratory results from patent US6525089B1, “Pharmaceutical composition containing decursin” (Binex Co., Ltd., priority 1998, dated 2003).

Experiments:
ICR mice [1] = assay: Urinary test, alloxan-treated mice; type: in vivo; conditions: Alloxan group
Protocol: (§1) 2 days after ICR mice were given alloxan (75 mg/kg, i.v.), their glucose levels at fasting were measured to select high-glucose mice. The high-glucose mice were divided into two groups; physiological saline solution was given to one group, while decursin was orally administered to the other group at a dose of 50 mg/kg for 10 days. The alloxan-free group was also orally given physiological saline solution for 10 days. The body weighs were checked periodically, together with urinary tests. To isolate their sera and kidney, mice were slightly anesthetized with ether and their abdomens were dissected. The blood samples were collected from heart to isolate the sera. The kidney was perfused with 0.9% NaCl and isolated after removal of the blood. Then the weight of right kidney was measured. Further, to measure the protein amount from the kidney tissues, these tissues were assayed according to the Bradford method using Bio-Rad protein assay kit in the presence of bovine serum albumin as a reference standard. To measure the MDA in the kidney tissues, 0.4 ml of 10% sodium dodecylsulfate was added to 0.5 ml of 10% kidney-tissue homogenization solution and left in water bath at 37° C. for 30 minutes; With the subsequent addition of 0.1N-HCl (2 ml) and 0.67% TBA (1 ml), the mixture was voltexed and left in boiling water bath for 30 minutes. The mixture was further cooled in ice bath for 2˜3 minutes to stop the reaction. Then 2 ml of n-butanol was added to the mixture, stirred well and centrifuged at 3000 rpm for 10 minutes. The supernatant was collected to measure the absorbance at 532 nm. 10 μg/ml tetraethoxypropane (TEP) was employed as a reference standard. To measure the MDA in sera, 0.8% thiobarbituric acid (TBA) was added to 0.5 ml of sera and left in boiling water bath for 30 minutes. The mixture was further cooled in ice bath for 2˜3 minutes to stop the reaction. The supernatant was collected to measure the absorbance at 532 nm. 10 μg/ml TEP was employed as a reference standard.

ICR mice [2] = assay: BUN and MDA in blood and MDA in renal tissue, alloxan-treated mice; type: in vivo; conditions: alloxan 75 mg/kg i.v., saline for 10 days
Protocol: as §1
Mice were orally given decursin at a dose of 50 mg/kg for 10 days continuously. Then various parameters such as BUN and MDA in the blood as a marker of renal failure were measured, together with urinary test. When […] (table 4), the BUN value of single alloxan-treated group, 17.4±3.7 mg/dl was recovered to the normal level (4.8±0.6 mg/dl) by the treatment of decursin. The MDA value of single alloxan-treated group, 0.51±0.07, was reduced to 0.36±0.03 by the treatment of decursin, which was similar to a normal control group. Thus it was noted that the damage in the kidney was completely recovered. Since the reduction of both MDA values in the blood and kidney tissues may be clinically reasonable and desirable, the MDA value in the kidney tissues was measured. As a result, the MDA value in the kidney tissues of a single alloxan-treated group, 13.24±5.93, was reduced to 5.63±0.99 by the treatment of decursin, which was lower than that of normal control group (8.44±1.01).

U-937 cells [3] = assay: Phagocytosis test; type: cell-based, human; conditions: 1 × 10^−7M, incubated 4 days
Protocol: (§2) U-937 cells were plated on a cell culture dish at a concentration of 2×10^5 cells/ml in a medium containing 10^−7M decursin and incubated in a 5% CO2 incubator at 37° C.
In the phagocytosis test, 10^6 cells were well stirred and pelleted by centrifugation at 2000 rpm for 5 minutes. 1 ml of 0.2% serum free medium solution in polystyrene particle were added to the pellets, swayed and incubated at 37° C. for 4 hours. After being washed with phosphate buffered saline (PBS) three times, cell pellets were harvested and then about 200 μl of DPBS was added. The solution was lightly swayed and checked under a microscope to observe a minimum number of 200 cells. The number of cells containing the particles was calculated by percentage.
The results of phagocytosis test designed to assess the functional change according to differentiation of U-937 cells was shown in the following Table 8.

U-937 cells [4] = assay: Esterase activity test: naphthol AS-D chloroacetate esterase; type: cell-based, human; conditions: percentage of cells showing activity
Protocol: To determine naphthol AS-D chloroacetate esterase activity, the cultured solution of U-937 cells was pelleted by centrifugation at 2000 rpm for 5 minutes, followed by the addition of 100 μl PBS to prepare a cell-concentrated solution. A drop of the cell solution was put on a slide glass and dried for more than 1 hour. Then 40 ml of deionized water was preheated at 37° C. 1 ml of […] solution was mixed with 1 ml of Fast Red Violet LB base solution and left for 2 minutes. The mixture was added to 40 ml of preheated deionized water. After the addition of 5 ml of TRIZMAL TM 6.3) buffer solution (Sigma Co. T-3128) and 1 ml of naphthol AS-D chloroacetate solution, the resulting solution, which was turned to red color was poured on a petri dish. The cells on a slide glass were fixed with citrate-acetone-formaldehyde solution, (CAF solution) at room temperature. The cells were soaked in the previously prepared solution and incubated at 37° C. for 30 minutes at a dark place. The cells were completely washed with deionized water for more than 2 minutes and counterstained with hematoxylin solution for 2 minutes, washed with tap water and dried in the air. After completely dried, the cells were observed under a microscope to calculate the reddish cell numbers by percentage.
(§3) Thus it was considered that the cells were differentiated into macrophage.like cells by the action of decursin.

U-937 cells [5] = assay: Growth inhibition test (trypan blue exclusion); type: cell-based, human; conditions: 4 days (96 hours)
Protocol: U-937 cells, optioned from Korea Cell Line Bank, was cultured in RPMI 1640 medium (Sigma Co., R-6504) supplemented with 10% fetal bovine serum (FBS). The medium was exchanged every 5 day by 70%. U-937 cells were inoculated into a cell culture dish at concentration of 2×10^5 cells/ml. Then decursin added into the dish at concentration of 10^−8˜10^−6M, then the cells were cultured for 4 days. Trypan blue exclusion test was performed to determine the number of live cells using a hemacytometer, and the percentage of cancer-cell growth inhibition was calculated. Then, the differentiation was induced by treating with 10^−2M diluted ethanol solution containing various amount of decursin in the medium.

U-937 cells [6] = assay: NBT reduction test; type: cell-based, human; conditions: 1 × 10^−7M, incubated 4 days
Protocol: as §2
In the nitrobluetetrazolium (NBT) reduction test, cell solution (about 1×10^6 cells/ml) was well stirred and pelleted by centrifugation at 2000 rpm for 5 minutes. The pellets were suspended in 0.5 ml of medium, followed by the addition of a mixing solution (0.5 ml) containing 10^−6M formyl-methionine leucine phenylalanine (fMLP) and NBT 1.0 mg/DPBSml (1:9). The mixture was incubated at 37° C. for 30 minutes. The reaction was stopped in ice bath and centrifuged at 2000 rpm for 5 minutes. The supernatant was removed and then 200 μl of DPBS was added. The solution was lightly swayed and checked under a microscope to observe a minimum number of 200 cells. The number of NBT (+) cells was calculated by percentage.
The differentiation was investigated by using the fact that the differentiated leukocyte cells may generate superoxide anion by stimulation. […] The cultured mixture, which was reacted with superoxide, was reduced to form a precipitate. Then NBT was added to the precipitate (Table 7).

U-937 cells [7] = assay: Esterase activity test: α-naphthyl acetate esterase; type: cell-based, human; conditions: percentage of cells showing activity
Protocol: To determine α-naphthyl acetate esterase activity in the esterase activity test, the cultured solution of U-937 cells was pelleted by centrifugation at 2000 rpm for 5 minutes, followed by the addition of 100 μl PBS to prepare a cell-concentrated solution. A drop of the cell solution was put on a slide glass and dried for more than 1 hour. Then 40 ml of deionized water was preheated at 37° C. 1 ml of […] solution was mixed with 1 ml of Fast Blue BB base solution and left for 2 minutes. The mixture, being turned to yellow color with thick brown, was added to 40 ml of the preheated deionized water. After the addition of 5 ml of TRIZMAL TM 7.6 buffer solution (Sigma Co. 870-2) and 1 ml of α-naphthyl acetate solution, the resulting solution, which was turned to green color, was poured into a petri dish. The cells on a slide glass were fixed with citrate-acetone-formaldehyde solution (CAF solution) at room temperature. The cells were soaked in the previously prepared solution and incubated at 37° C. for 30 minutes at a dark place. The cells were completely washed with deionized water for more than 2 minutes and counterstained with hematoxylin solution for 2 minutes, washed with tap water and dried in the air. After completely dried, the cells were observed under a microscope to determine the blackish cell numbers.
as §3

With O=C1NC(=O)C(=O)C(=O)N1 [alloxan] the “Urinary test Bilirubin: count in category +” value (ICR mice [1]) was 2, the “Urinary test Bilirubin: count in category ++” value (ICR mice [1]) was 6 and the “Urinary test Bilirubin: count in category +++” value (ICR mice [1]) was 2. The “Urinary test Glucose: count in category ++” value (ICR mice [1]) was 10, the “Urinary test Ketone: count in category ±” value (ICR mice [1]) was 3 and the “Urinary test Ketone: count in category −” value (ICR mice [1]) was 7. For the same compound, the “Urinary test Nitrite: count in category +” value (ICR mice [1]) was 4, the “Urinary test Nitrite: count in category −” value (ICR mice [1]) was 6 and the “Urinary test Occult blood: count in category ++” value (ICR mice [1]) was 2. For the same compound, the “Urinary test Occult blood: count in category +++” value (ICR mice [1]) was 8, the “Urinary test Protein: count in category −” value (ICR mice [1]) was 10 and the “Urinary test Specific gravity: count in category ++” value (ICR mice [1]) was 1. For the same compound, the “Urinary test Specific gravity: count in category +++” value (ICR mice [1]) was 9, the “Urinary test Urobilinogen: count in category +” value (ICR mice [1]) was 10 and the “Urinary test pH: count in category ±” value (ICR mice [1]) was 10. For the same compound, the BUN (ICR mice [2]) was 17.4 ± 3.7 mg/dL, the MDA in blood (ICR mice [2]) was 0.51 ± 0.07 µg/mL and the “MDA in renal tissue” value (ICR mice [2]) was 13.24 ± 5.93 µg/g.

For C=C1CC[C@H](O)C/C1=C/C=C1\CCC[C@]2(C)[C@@H]([C@H](C)CCCC(C)C)CC[C@@H]12 [Vitamin D3, reference compound], the “Phagocytosis test: cells showing phagocytosis activity” value (U-937 cells [3]) was 25.8 ± 1.3%, the “Phagocytosis test: cells showing phagocytosis activity” value (U-937 cells [3]; listed as vitamin D3) was 25.8% and the “Naphtol AS-D chloroacetate esterase Activity (%)” value (U-937 cells [4]) was 0.0%. The “Growth inhibition rate (%)” value (U-937 cells [5]; 1 × 10^−6M) was 54.0 ± 6.7%, the “Growth inhibition rate (%)” value (U-937 cells [5]; 1 × 10^−7M) was 42.5 ± 6.4% and the “Growth inhibition rate (%)” value (U-937 cells [5]; 1 × 10^−8M) was 26.0 ± 5.7%. The “Growth inhibition rate (%)” value (U-937 cells [5]; 5 × 10^−7M) was 48.0 ± 6.0%, the “Growth inhibition rate (%)” value (U-937 cells [5]; 5 × 10^−8M) was 33.5 ± 0.7% and the “NBT reduction test: positive cells” value (U-937 cells [6]) was 39.0 ± 2.1%. For the same compound, the “NBT reduction test: positive cells” value (U-937 cells [6]; listed as vitamin D3) was 39%, the “α-Naphtylacetate esterase Activity (%)” value (U-937 cells [7]) was 79.3 ± 4.5% and the “α-Naphtylacetate esterase Activity (%)” value (U-937 cells [7]; listed as vitamin D3) was 80%.
